From PubChem BioAssay AID1745844 (Carcinogenic Potency Database (CPDB), 2022)
Several values for one entry are separate records, joined by “and”; a condition that tells them apart may be missing. Equal values may be shown once.

Tested on: rodent lifetime carcinogenesis bioassay, tumor incidence TD50
Test: chronic cancer bioassays in animals – CPDB, compiled studies (AID 1745844)
Conditions: rat, strain Sprague-Dawley

## C=CCl
females, inhaled, site: extrahepatic tissue, lesion: angioma, dosed 52 weeks, study length 111 weeks
  TD50: 115 mg/kg/day
females, inhaled, site: extrahepatic tissue, lesion: angioma, dosed 52 weeks, study length 139 weeks
  TD50: 399 mg/kg/day
females, inhaled, site: extrahepatic tissue, lesion: angiosarcoma, dosed 25 weeks, study length 135 weeks
  TD50: 2420 mg/kg/day
females, inhaled, site: extrahepatic tissue, lesion: angiosarcoma, dosed 52 weeks, study length 111 weeks
  TD50: 52.9 mg/kg/day
females, inhaled, site: extrahepatic tissue, lesion: angiosarcoma, dosed 52 weeks, study length 131 weeks
  TD50: 21400 mg/kg/day
females, inhaled, site: kidney, lesion: nephroblastoma, dosed 25 weeks, study length 135 weeks
  TD50: 3140 mg/kg/day
females, inhaled, site: kidney, lesion: nephroblastoma, dosed 52 weeks, study length 111 weeks
  TD50: 17.5 mg/kg/day
females, inhaled, site: kidney, lesion: nephroblastoma, dosed 52 weeks, study length 139 weeks
  TD50: 230 mg/kg/day
females, inhaled, site: liver, lesion: angioma, dosed 25 weeks, study length 127 weeks
  TD50: 913 mg/kg/day
females, inhaled, site: liver, lesion: angioma, dosed 25 weeks, study length 135 weeks
  TD50: 507 mg/kg/day
females, inhaled, site: liver, lesion: angioma, dosed 52 weeks, study length 111 weeks
  TD50: 30.7 mg/kg/day
females, inhaled, site: liver, lesion: angioma, dosed 52 weeks, study length 139 weeks
  TD50: 378 mg/kg/day
females, inhaled, site: liver, lesion: angioma, dosed 71 weeks, study length 71 weeks
  TD50: 9130 mg/kg/day
females, inhaled, site: liver, lesion: angiosarcoma, dosed 25 weeks, study length 127 weeks
  TD50: 4460 mg/kg/day
females, inhaled, site: liver, lesion: angiosarcoma, dosed 25 weeks, study length 135 weeks
  TD50: 2460 mg/kg/day
females, inhaled, site: liver, lesion: angiosarcoma, dosed 52 weeks, study length 111 weeks
  TD50: 20.2 mg/kg/day
females, inhaled, site: liver, lesion: angiosarcoma, dosed 52 weeks, study length 131 weeks
  TD50: 735 mg/kg/day and 21 mg/kg/day
females, inhaled, site: liver, lesion: angiosarcoma, dosed 52 weeks, study length 139 weeks
  TD50: 113 mg/kg/day
females, inhaled, site: liver, lesion: angiosarcoma, dosed 71 weeks, study length 71 weeks
  TD50: 240 mg/kg/day
females, inhaled, site: liver, lesion: hepatocellular carcinoma, dosed 71 weeks, study length 71 weeks
  TD50: 1720 mg/kg/day
females, inhaled, site: liver, lesion: hepatoma, dosed 25 weeks, study length 135 weeks
  TD50: 357 mg/kg/day
females, inhaled, site: liver, lesion: hepatoma, dosed 52 weeks, study length 131 weeks
  TD50: 244 mg/kg/day
females, inhaled, site: liver, lesion: hepatoma, dosed 52 weeks, study length 139 weeks
  TD50: 140 mg/kg/day
females, inhaled, site: mammary gland, lesion: adenocarcinoma, dosed 25 weeks, study length 135 weeks
  TD50: 291 mg/kg/day
females, inhaled, site: mammary gland, lesion: adenocarcinoma, dosed 52 weeks, study length 111 weeks
  TD50: 5.91 mg/kg/day
females, inhaled, site: mammary gland, lesion: adenocarcinoma, dosed 52 weeks, study length 131 weeks
  TD50: 1.66 mg/kg/day
females, inhaled, site: mammary gland, lesion: adenocarcinoma, dosed 52 weeks, study length 139 weeks
  TD50: 141 mg/kg/day
males, by gavage, site: Zymbal's gland, lesion: carcinoma, dosed 52 weeks, study length 127 weeks
  TD50: 315 mg/kg/day
males, by gavage, site: Zymbal's gland, lesion: carcinoma, dosed 59 weeks, study length 129 weeks
  TD50: 4.75 mg/kg/day
males, by gavage, site: any site (literature study), lesion: several types, types named in the paper, dosed 52 weeks, study length 127 weeks
  TD50: 37.9 mg/kg/day
males, by gavage, site: any site (literature study), lesion: several types, types named in the paper, dosed 59 weeks, study length 129 weeks
  TD50: 16.1 mg/kg/day
males, by gavage, site: extrahepatic tissue, lesion: angioma, dosed 52 weeks, study length 127 weeks
  TD50: 409 mg/kg/day
males, by gavage, site: kidney, lesion: nephroblastoma, dosed 52 weeks, study length 127 weeks
  TD50: 102 mg/kg/day
males, by gavage, site: liver, lesion: angioma, dosed 52 weeks, study length 127 weeks
  TD50: 430 mg/kg/day
males, by gavage, site: liver, lesion: angiosarcoma, dosed 52 weeks, study length 127 weeks
  TD50: 57.4 mg/kg/day
males, by gavage, site: liver, lesion: angiosarcoma, dosed 59 weeks, study length 129 weeks
  TD50: 8.45 mg/kg/day
males, by gavage, site: liver, lesion: hepatoma, dosed 59 weeks, study length 129 weeks
  TD50: 3.36 mg/kg/day
males, inhaled, site: Zymbal's gland, lesion: carcinoma, dosed 25 weeks, study length 115 weeks
  TD50: 284 mg/kg/day
males, inhaled, site: Zymbal's gland, lesion: carcinoma, dosed 25 weeks, study length 139 weeks
  TD50: 226 mg/kg/day
males, inhaled, site: Zymbal's gland, lesion: carcinoma, dosed 52 weeks, study length 131 weeks
  TD50: 2320 mg/kg/day
males, inhaled, site: Zymbal's gland, lesion: carcinoma, dosed 52 weeks, study length 139 weeks
  TD50: 50.4 mg/kg/day
males, inhaled, site: adrenal gland, lesion: one or several types, types not named, dosed 52 weeks, study length 130 weeks
  TD50: 251 mg/kg/day
males, inhaled, site: any site (literature study), lesion: several types, types named in the paper, dosed 25 weeks, study length 115 weeks
  TD50: 134 mg/kg/day
males, inhaled, site: any site (literature study), lesion: several types, types named in the paper, dosed 25 weeks, study length 139 weeks
  TD50: 284 mg/kg/day
males, inhaled, site: any site (literature study), lesion: several types, types named in the paper, dosed 52 weeks, study length 130 weeks
  TD50: 17.3 mg/kg/day
males, inhaled, site: any site (literature study), lesion: several types, types named in the paper, dosed 52 weeks, study length 131 weeks
  TD50: 950 mg/kg/day
males, inhaled, site: any site (literature study), lesion: several types, types named in the paper, dosed 52 weeks, study length 139 weeks
  TD50: 8.67 mg/kg/day
males, inhaled, site: brain, lesion: neuroblastoma, dosed 52 weeks, study length 131 weeks
  TD50: 4580 mg/kg/day
males, inhaled, site: extrahepatic tissue, lesion: angioma, dosed 25 weeks, study length 115 weeks
  TD50: 5810 mg/kg/day
males, inhaled, site: extrahepatic tissue, lesion: angioma, dosed 52 weeks, study length 123 weeks
  TD50: 31.4 mg/kg/day
males, inhaled, site: extrahepatic tissue, lesion: angioma, dosed 52 weeks, study length 131 weeks
  TD50: 8180 mg/kg/day
males, inhaled, site: extrahepatic tissue, lesion: angioma, dosed 52 weeks, study length 139 weeks
  TD50: 18 mg/kg/day
